Measured values reported in paper PMC10289903 (Investigational New Drugs, 2023).
Where two headings read alike, the source gives them in different places.

Key:
[1] = system: patients with locally advanced or metastatic solid tumors
Source text: This was a Phase Ib, multicenter, open-label, dose-finding clinical trial (NCT02610075). […] Three types of treatment schedules were investigated: cohorts bid 1, bid 2, qd 1.1, qd 2.1 and qd 3.1 received bid or qd treatment on a 5/9 schedule (5 days on treatment, followed by 9 days off) on a 14-day cycle. Cohorts qd 1.2, qd 2.2, and qd 3.2 received treatment on a 5/2 schedule (5 days on followed by 2 days off for 2 of 3 weeks) in a 21-day cycle. Cohorts qd 2.3 and qd 3.3 received treatment on a weekly 5/2 schedule in a 21-day cycle (Table 1). The highest dose level(s) at which less than one-third of evaluable patients (none of 3 patients or 1 of 6 patients) experienced a dose-limiting toxicity (DLT) was declared the MTD.
DLTs were evaluated during the first 28 days (5/9 schedule) or the first 21 days (5/2 schedule) of treatment.

clinical = settings: in vivo
Method: Pre-dose samples were also collected on day 5 of treatment cycle 5.
The slope estimate (β) and corresponding 90% confidence interval (CI) were calculated, where a β estimate of 1 with 90% CI entirely within the bounds of 0.8–1.25 indicated perfect dose proportionality.

C=CCn1c(=O)c2cnc(Nc3ccc(N4CCN(C)CC4)cc3)nc2n1-c1cccc(C(C)(C)O)n1 [adavosertib, Adavosertib]
Maximum tolerated dose (MTD) ([1]; bid 5/9 schedule (cohort bid 1)): 125 mg
DLT nausea, occurrences ([1]; human, in vivo): 3 n
DLT thrombocytopenia, occurrences ([1]; human, in vivo): 3 n
Number of DLTs reported ([1]; human, in vivo): 12
Recommended Phase II dose (RP2D) ([1]; human, in vivo, 21 days): 300 mg
All other DLTs (dehydration, neutropenia, weight decrease, pneumonia, diarrhea, vomiting), occurrences each ([1]; in vivo): once
Maximum tolerated dose (MTD) ([1]; qd 5/2 for 2 of 3 weeks (cohort qd 3.2)): 300 mg
Maximum tolerated dose (MTD) ([1]; qd 5/9 schedule (cohort qd 3.1)): 300 mg
Dose proportionality power model slope β, AUC0–10 (clinical; human): 1.31
Dose proportionality power model slope β, Cmax (clinical; human): 1.31
half-life (clinical; human, po): 300 to 720 min
Dose proportionality of systemic exposure (clinical): more than dose proportional
